Experiments:
STAT5a = target: T1, STAT5a (Homo sapiens, UniProt P42229); experiment: Competitive fluorescence polarization (FP) assay, STAT5a; assay type: binding; conditions: no reducing agent, 1 h
T1 sequence (P42229 1-794): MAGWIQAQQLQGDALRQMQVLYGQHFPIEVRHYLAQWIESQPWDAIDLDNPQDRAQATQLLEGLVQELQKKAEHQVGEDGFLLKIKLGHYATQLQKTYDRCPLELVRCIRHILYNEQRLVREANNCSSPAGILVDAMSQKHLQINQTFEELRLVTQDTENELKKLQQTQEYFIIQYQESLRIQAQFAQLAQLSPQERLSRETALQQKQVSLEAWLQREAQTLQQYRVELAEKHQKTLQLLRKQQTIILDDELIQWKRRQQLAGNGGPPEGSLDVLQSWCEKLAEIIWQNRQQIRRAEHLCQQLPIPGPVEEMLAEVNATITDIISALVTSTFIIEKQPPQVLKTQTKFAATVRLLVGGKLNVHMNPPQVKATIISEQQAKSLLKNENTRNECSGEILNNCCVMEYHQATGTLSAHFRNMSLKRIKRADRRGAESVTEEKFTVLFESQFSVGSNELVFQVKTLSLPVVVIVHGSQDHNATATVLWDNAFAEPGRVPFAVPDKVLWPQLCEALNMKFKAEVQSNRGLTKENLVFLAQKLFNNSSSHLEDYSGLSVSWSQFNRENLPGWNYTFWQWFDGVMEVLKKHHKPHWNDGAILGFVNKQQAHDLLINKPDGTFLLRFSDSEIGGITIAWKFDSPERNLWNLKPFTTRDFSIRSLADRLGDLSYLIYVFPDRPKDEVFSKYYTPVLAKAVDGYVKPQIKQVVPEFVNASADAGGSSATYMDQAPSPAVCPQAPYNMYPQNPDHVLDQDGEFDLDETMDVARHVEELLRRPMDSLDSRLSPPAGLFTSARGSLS
Description: (§1) Screening of chemical libraries
(§2) Screening of chemical libraries comprising approximately 5000 known bioactive compounds in fluorescence polarization-based assays against phosphorylation-dependent protein-protein interaction domains, including STAT proteins, has been described.[1] PPADS was purchased from Sigma-Aldrich, and iso-PPADS from Bio-Techne.
(§3) Fluorescence polarization assays
(§4) Competitive fluorescence polarization (FP) assays for STAT1,[2] STAT3,[3] STAT4,[4] STAT5a,[5] STAT5b[6] and STAT6[1] were performed as previously described. Briefly, peptide binding to proteins was analyzed using the following carboxyfluorescein (CF) -labelled pepti des at a concentration of 10 nM: STAT1: 5-CF-GpYDKPHVL-OH, STAT3: 5-CF-GpYLPQTV -NH2, STAT4: 5-CF-GpYLPQNID-OH, STAT5a and STAT5b: 5-CF-GpYLVLDKW-OH, STAT6: 5- […]
CFGp[…]-OH. […] FP was measured using an Infinite F500 plate reader (Tecan) and measurements were converted into percent inhibition according to the binding curve equation. Curves were plotted and best fits calculated using OriginPro […]
Homogenous time-resolved fluorescence (HTRF) assays for STAT3, STAT4, STAT5a and STAT5b were carried out using Cisbio Monoclonal Antibody Anti-6His-Tb Gold as the fluorescence donor (Perkin Elmer) and the corresponding CF-labelled binding peptide as the acceptor. […] The average reading from 3 wells was obtained. […]

STAT5b = target: T2, STAT5b (Homo sapiens, UniProt P51692); experiment: Competitive fluorescence polarization (FP) assay, STAT5b; assay type: binding; conditions: no reducing agent, 1 h
T2 sequence (P51692 1-787): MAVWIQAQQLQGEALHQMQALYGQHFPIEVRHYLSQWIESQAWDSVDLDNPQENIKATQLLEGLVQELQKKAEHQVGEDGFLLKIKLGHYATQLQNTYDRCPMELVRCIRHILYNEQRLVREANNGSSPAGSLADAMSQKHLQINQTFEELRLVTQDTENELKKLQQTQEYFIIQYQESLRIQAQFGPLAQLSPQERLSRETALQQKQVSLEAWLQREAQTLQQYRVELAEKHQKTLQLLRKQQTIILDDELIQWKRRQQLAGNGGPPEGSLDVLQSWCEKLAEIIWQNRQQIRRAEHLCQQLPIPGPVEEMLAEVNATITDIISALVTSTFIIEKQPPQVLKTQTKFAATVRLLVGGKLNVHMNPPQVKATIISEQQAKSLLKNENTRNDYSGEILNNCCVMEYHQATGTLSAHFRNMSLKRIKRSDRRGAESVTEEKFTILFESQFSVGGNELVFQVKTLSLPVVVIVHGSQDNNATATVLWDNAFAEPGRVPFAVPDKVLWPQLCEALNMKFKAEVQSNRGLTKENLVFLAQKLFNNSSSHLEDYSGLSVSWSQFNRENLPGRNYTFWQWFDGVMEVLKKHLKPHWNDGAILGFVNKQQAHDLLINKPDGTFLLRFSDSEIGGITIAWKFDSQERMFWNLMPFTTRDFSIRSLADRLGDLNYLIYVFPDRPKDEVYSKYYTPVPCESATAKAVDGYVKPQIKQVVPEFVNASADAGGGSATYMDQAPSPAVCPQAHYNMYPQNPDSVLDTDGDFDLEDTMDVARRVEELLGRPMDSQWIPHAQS
Description: as §1, §2, §3, §4
CFGp[…]-OH. Proteins were used at a final concentration representing the approximate Kd value for binding of the corresponding peptide to the protein, namely 65 nM for STAT1, 65 nM for STAT3, 35 nM for STAT4, 125 nM for STAT5a, 65 nM for STAT5b and 75 nM for STAT6. […] FP was measured using an Infinite F500 plate reader (Tecan) and measurements were converted into percent inhibition according to the binding curve equation. Curves were plotted and best fits calculated using OriginPro […]

SMILES: Cc1nc(/N=N/c2ccc(S(=O)(=O)O)cc2S(=O)(=O)O)c(COP(=O)(O)O)c(C=O)c1O [PPADS, pyridoxalphosphate‐6‐azophenyl‐2',4'‐disulfonic acid]
- IC50 (STAT5a): 1500 ± 200 nM
- IC50 (STAT5b): 2000 ± 300 nM

SMILES: Cc1nc(/N=N/c2cc(S(=O)(=O)O)ccc2S(=O)(=O)O)c(COP(=O)(O)O)c(C=O)c1O [iso‐PPADS]
- IC50 (STAT5a): 4800 ± 400 nM
- IC50 (STAT5b): 1900 ± 100 nM

— paper PMC12442245, “Activity Analysis of the P2X Receptor Antagonist PPADS against Signal Transducer and Activator of Transcription Proteins” (Chembiochem, 2025)
